The values that follow come from patent US8791141B2, “Organic compounds” (Novartis AG, priority 2008, dated 2014).

For experiment [1], the target named is T1, CYP11B2 (aldosterone synthase) (Homo sapiens, UniProt P19099).
T1 construct: the NCI-H295R cells have CYP11B2 (aldosterone synthase) and CYP11B1 (steroid 11-hydroxylase); host or cells: NCI-H295R
T1 sequence (P19099 25-503): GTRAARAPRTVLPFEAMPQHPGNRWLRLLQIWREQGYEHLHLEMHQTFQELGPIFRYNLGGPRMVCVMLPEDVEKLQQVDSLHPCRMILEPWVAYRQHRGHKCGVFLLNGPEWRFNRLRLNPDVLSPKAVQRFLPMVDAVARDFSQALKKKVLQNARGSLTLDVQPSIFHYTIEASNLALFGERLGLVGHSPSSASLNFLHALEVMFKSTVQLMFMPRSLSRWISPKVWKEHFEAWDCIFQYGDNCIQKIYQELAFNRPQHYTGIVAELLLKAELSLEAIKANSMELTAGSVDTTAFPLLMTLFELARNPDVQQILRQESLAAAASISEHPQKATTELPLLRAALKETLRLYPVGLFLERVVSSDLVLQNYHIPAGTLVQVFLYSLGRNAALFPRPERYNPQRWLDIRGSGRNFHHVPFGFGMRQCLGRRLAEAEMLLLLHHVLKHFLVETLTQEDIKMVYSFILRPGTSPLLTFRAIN
Kind of experiment: Inhibition of aldosterone secretion in NCI-H295R cells. In kind it is cell-based. Particulars: human adrenocortical carcinoma NCI-H295R cells, 24 hours with cell stimulant. From the text:
(§1) The activities of a compound according to the present invention can be assessed by the following in vitro method well-described in the art.
(§2) In particular, the inhibition of aldosterone and cortisol secretion in vitro can be determined by the following assay.
(§3) The cell line NCI-H295R was originally isolated from an adrenocortical carcinoma and has been characterized in the literature through the stimulable secretion of steroid hormones and the presence of the enzymes essential for steroidogenesis. The cells show the physiological property of zonally undifferentiated human foetal adrenocortical cells which, however, have the capacity to produce the steroid hormones which are formed in the three phenotypically distinguishable zones in the adult adrenal cortex. Thus, the NCI-H295R cells have CYP11B2 (aldosterone synthase) and CYP11B1 (steroid 11-hydroxylase).
(§4) The human adrenocortical carcinoma NCI-H295R cell line is obtained from American Type Culture Collection (Manassas, Va.). Insulin/transferrin/selenium (ITS)-A supplement (100×), DMEM/F-12, antibiotic/antimycotic (100×), and fetal calf serum (FCS) are purchased from Invitrogen (Carlsbad, Calif.). Anti-mouse PVT scintillation proximity assay (SPA) beads and NBS 96-well plates are obtained from Amersham (Piscataway, N.J.) and Corning (Acton, Mass.), respectively. Clear bottom 96-well flat bottom plates are purchased from Costar (Corning, N.Y.). Aldosterone and angiotensin (Ang II) are purchased from Sigma (St. Louis, Mo.). D[1,2,6,7-3H(N)]aldosterone and [1,2,6,7-3H(N)]cortisol are acquired from PerkinElmer (Boston, Mass.). Nu-serum is a product of BD Biosciences (Franklin Lakes, N.J.).
(§5) For in vitro measurement of aldosterone and cortisol activity, human adrenocortical carcinoma NCI-H295R cells are seeded in NBS 96-well plates at a density of 25,000 cells/well in 100 μL of a growth medium containing DMEM/F12 supplemented with 10% FCS, 2.5% Nu-serum, 1 μg ITS/ml, and 1× antibiotic/antimycotic. The medium is changed after culturing for 3 days at 37° C. under an atmosphere of 5% CO2/95% air. On the following day, cells are rinsed with 100 μL of DMEM/F12 and incubated in quadruplicate wells at 37° C. for 24 hours with 100 μL of treatment medium containing a cell stimulant and a compound at different concentrations. […] Cell stimulants which can be used are angiotensin-II (1 micromolar), potassium ions (16 millimolar), forskolin (10 micromolar) or a combination of two stimulants. At the end of incubation, the excretion of aldosterone and cortisol into the culture medium can be detected and quantified by commercially available, specific monoclonal antibodies in radioimmunoassays in accordance with the manufacturer's instructions.
(§6) Measurement of aldosterone can also be performed using a 96-well plate format. Each test sample is incubated with 0.02 μCi of D[1,2,6,7-3H(N)]aldosterone and 0.3 μg of anti-aldosterone antibody in phosphate-buffered saline (PBS) containing 0.1% Triton X-100, 0.1% bovine serum albumin, and 12% glycerol in a total volume of 200 μL at room temperature for 1 hour. Anti-mouse PVT SPA beads (50 μL) are then added to each well and incubated overnight at room temperature prior to counting in a Microbeta plate counter. The amount of aldosterone in each sample is calculated by comparing with a standard curve generated using known quantities of the hormone. Measurement of cortisol can be performed in a manner similar to that of aldosterone, except that [1,2,6,7-3H(N)]cortisol is used.
(§7) Inhibition of the release of a steroid can be used as a measure of the respective enzyme inhibition by the added test compounds. The dose-dependent inhibition of enzymatic activity by a compound is calculated by means of an inhibition plot which is characterized by an IC50. […] The inhibition plot is calculated by fitting a 4-parameter logistic function to the raw data points using the least squares method.

Experiment [2] has as its target T2, CYP11B1 (steroid 11-hydroxylase) (Homo sapiens, UniProt P15538).
T2 construct: the NCI-H295R cells have CYP11B2 (aldosterone synthase) and CYP11B1 (steroid 11-hydroxylase); host or cells: NCI-H295R
T2 sequence (P15538 25-503): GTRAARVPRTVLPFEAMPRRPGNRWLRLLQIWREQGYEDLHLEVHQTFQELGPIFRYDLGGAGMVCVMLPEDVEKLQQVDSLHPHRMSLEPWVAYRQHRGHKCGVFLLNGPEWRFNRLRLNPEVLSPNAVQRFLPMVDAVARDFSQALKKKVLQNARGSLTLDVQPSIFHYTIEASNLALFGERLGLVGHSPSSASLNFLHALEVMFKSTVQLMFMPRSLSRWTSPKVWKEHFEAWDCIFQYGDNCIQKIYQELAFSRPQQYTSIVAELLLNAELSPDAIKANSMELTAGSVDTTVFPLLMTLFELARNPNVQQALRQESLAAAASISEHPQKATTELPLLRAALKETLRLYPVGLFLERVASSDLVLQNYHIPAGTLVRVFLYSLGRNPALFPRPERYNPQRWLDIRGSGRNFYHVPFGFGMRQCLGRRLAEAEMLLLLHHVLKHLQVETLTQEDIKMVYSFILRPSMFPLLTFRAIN
Description: Inhibition of cortisol secretion in NCI-H295R cells. In kind it is cell-based. The conditions noted are these: human adrenocortical carcinoma NCI-H295R cells, 24 hours with cell stimulant.
Excerpt: as §1, §2, §3, §4, §5, §6, §7

Some results are limits rather than exact numbers.

As for `CCS(=O)(=O)Nc1cncc(-c2c(C)c3ccccc3n2C)c1` [Example 236, Ethanesulfonic acid [5-(1,3-dimethyl-1H-indol-2-yl)-pyridin-3-yl)-amide], the IC50 in experiment [1] amounted to 21 nM; in experiment [2] it was 1100 nM.
In the same order, the values of `CN(C)S(=O)(=O)Nc1cncc(-c2cc3ccccc3n2C)c1` [Example 228] are 105 nM and > 1000 nM.
In the same order, the values of `COCCc1cncc(-c2c(C#N)c3ccccc3n2C)c1` [Example 217, 2-[5-(2-Methoxy-ethyl)-pyridin-3-yl]-1-methyl-1H-indole-3-carbonitrile] are 4 nM and 22 nM.
In the same order, the values of `CC(C)S(=O)(=O)NCc1cncc(-c2c(C#N)c3ccc(Cl)cc3n2C)c1` [Example 186, Propane-2-sulfonic acid [5-(6-chloro-3-cyano-1-methyl-1H-indol-2-yl)-pyridin-3-ylmethyl]amide] are 21 nM and 390 nM.
`CCS(=O)(=O)NCc1cncc(-c2cc3ccc(Cl)cc3n2C)c1` [Example 206, N-[5-(6-Chloro-1-methyl-1H-indol-2-yl)-pyridin-3-ylmethyl]-ethanesulfonamide]: the results for the IC50 in experiment [1] and in experiment [2] were 2 nM and 213 nM, respectively.
The corresponding values for `CCS(=O)(=O)Nc1cncc(-c2cc3ccccc3n2C)c1` [Example 226, Ethanesulfonic acid [5-(1-methyl-1H-indol-2-yl)-pyridin-3-yl]-amide] are 36 nM and 345 nM.
On to `CCS(=O)(=O)Nc1cncc(-c2c(COC)c3ccc(Cl)cc3n2C)c1` [Example 238, Ethanesulfonic acid [5-(1-methyl-3-methoxymethyl-6-chloro-1H-indol-2-yl)-pyridin-3-yl)-amide], for which the IC50 in experiment [1] was 44 nM; in experiment [2] it was > 1000 nM.
With `Cc1c(-c2cccnc2)n(COC(=O)C(C)(C)C)c2ccc(Cl)cc12` [Example 65, 2,2-Dimethyl-propionic acid 5-chloro-3-methyl-2-pyridin-3-yl-indol-1-ylmethyl ester], the IC50 in experiment [1] worked out at 10 nM; in experiment [2], 240 nM.
Take `CC(C)C(=O)C1(CNc2cncc(-c3cc4ccccc4n3C)c2)CCC1` [Example 214, 2-Methyl-1-(1-{[5-(1-methyl-1H-indol-2-yl)-pyridin-3-ylamino]-methyl}-cyclobutyl)-propan-1-one]: the figures for the 50% inhibitory concentration (IC50) in experiment [1] and in experiment [2] were 56 nM and 377 nM, respectively.
The corresponding values for `Cn1c(-c2cnccc2Cl)cc2ccccc21` [Example 107, 2-(4-Chloro-pyridin-3-yl)-1-methyl-1H-indole] are 9 nM and 220 nM.
The corresponding values for `CCc1c(-c2cncc(NS(=O)(=O)CC)c2)n(C)c2ccccc12` [Example 229, Ethanesulfonic acid [5-(1-methyl-3-ethyl-1H-indol-2-yl)-pyridin-3-yl]-amide] are 5 nM and 125 nM.
In the same order, the values of `Cn1c(-c2cncc(OS(C)(=O)=O)c2)c(C#N)c2ccccc21` [Example 138, Methanesulfonic acid 5-(3-cyano-1-methyl-1H-indol-2-yl)-pyridin-3-yl ester] are 43 nM and 326 nM.
Regarding `Cc1c(-c2cccnc2)[nH]c2ccc(C#N)cc12` [Example 6, 3-Methyl-2-pyridin-3-yl-1H-indole-5-carbonitrile], the half-maximal inhibitory concentration (IC50) in experiment [1] was 1 nM; in experiment [2], 7 nM.
The corresponding values for `CCNS(=O)(=O)c1cncc(-c2cc3ccccc3n2C)c1` [Example 242, N-ethyl-5-(1-methyl-1H-indol-2-yl)pyridine-3-sulfonamide] are 23 nM and > 1000 nM.
The corresponding values for `COc1ccncc1-c1cc2cc(C#N)ccc2[nH]1` [Example 90, 2-(4-Methoxy-pyridin-3-yl)-1H-indole-5-carbonitrile] are 40 nM and 400 nM.
Turning to `N#Cc1cccc(C(=O)n2c(-c3cccnc3)cc3cc(C#N)ccc32)c1` [Example 42, 1-(3-Cyano-benzoyl)-2-pyridin-3-yl-1H-indole-5-carbonitrile], the IC50 in experiment [1] came to 30 nM; in experiment [2], 600 nM.
As to `Cn1c(-c2cncc(CNS(=O)(=O)CC(F)(F)F)c2)cc2ccc(Cl)cc21` [Example 209, 2,2,2-Trifluoro-ethanesulfonic acid [5-(6-chloro-1-methyl-1H-indol-2-yl)-pyridin-3-ylmethyl]-amide], the IC50 in experiment [1] is 23 nM; in experiment [2] it was 788 nM.
Consider `Cn1c(-c2cncc(Cl)c2)c(C#N)c2ccccc21` [Example 123, 2-(5-Chloro-pyridin-3-yl)-1-methyl-1H-indole-3-carbonitrile], for which the half-maximal inhibitory concentration (IC50) in experiment [1] worked out at 78 nM; in experiment [2], 650 nM.
In the same order, the values of `Cn1c(-c2cnccc2CO)cc2ccccc21` [Example 106, [3-(1-Methyl-1H-indol-2-yl)-pyridin-4-yl]-methanol] are 85 nM and 530 nM.
The corresponding values for `CC(C)NC(=O)NCc1cncc(-c2c(C#N)c3ccc(Cl)cc3n2C)c1` [Example 196, 1-[5-(6-Chloro-3-cyano-1-methyl-1H-indol-2-yl)-pyridin-3-ylmethyl]-3-isopropyl-urea] are 3 nM and 19 nM.
The corresponding values for `Cn1c(-c2cncc(CN3CCN(S(C)(=O)=O)CC3)c2)c(C#N)c2ccc(Cl)cc21` [Example 180, 6-Chloro-2-[5-(4-methanesulfonyl-piperazin-1-ylmethyl)-pyridin-3-yl]-1-methyl-1H-indole-3-carbonitrile] are 2 nM and 3 nM.
For `COCCOC(=O)NCc1cncc(-c2c(C#N)c3ccc(Cl)cc3n2C)c1` [Example 192], the IC50 in experiment [1] was found to be 4 nM; in experiment [2], 20 nM.
On to `COc1cncc(-c2cc3ccccc3n2C)c1` [Example 101, 2-(5-Methoxy-pyridin-3-yl)-1-methyl-1H-indole], for which the IC50 in experiment [1] was found to be 2 nM; in experiment [2] it was 37 nM.
